Results as given in patent US20230146455A1, “TREATMENT OF INFLAMMATORY DISEASES WITH PEPTIDES AND PHARMACEUTICAL COMPOSITIONS” (Yuyu Pharma, Inc., priority 2020, published 2023).
“And” between values parts separate entries of the source, which are not always exact repeats. Equal entries are not always repeated. Where a SMILES comes first, the peptide text is derived from it. [ ]: non-standard residue; d: D form. Hyp = O=C(O)[C@@H]1C[C@@H](O)CN1

Tested on: IL-6
Experiment: Example 8 main study Luminex, LPS hPBMCs: IL-6
Assay type: cell-based, human
Settings: for LPS-induced IL-6 (in words): at as low as 5 μM, LPS 5 ug/mL 24 hrs
Description: Human PBMCs were pretreated with YY-101, YDE-011, YDE-043 or reference compound; Xiidra® at various concentration (ranging from […] to 500 nM) for 2 h before stimulation. An equal volume of 0.5% DMSO was used as a vehicle control. Then, the cells were treated with LPS at 5 ug/ml, which was selected based on the pilot study. The supernatants from treated cells were harvested at 24 h and placed in a 96 well for Luminex cytokine & chemokine profiling using a Luminex 200 multiplex assay (Luminex; R&D system, USA).
The main study arm with triplicate wells per group in a 24-well plate: • 1. Blank • 2. PBMC: 0.5% DMSO • 3. PBMC+LPS (5 ug/ml) • 4. PBMC+YY-101 500 nM • 5. PBMC+YY-101 50 nM • 6. PBMC+YY-101 5 nM • 7. PBMC+YY-101 0.5 nM • 8. PBMC+LPS (5 ug/ml)+Xiidra® 500 nM • 9. PBMC+LPS (5 ug/ml)+Xiidra® 50 nM • 10. PBMC+LPS (5 ug/ml)+Xiidra® 5 nM • 11. PBMC+LPS (5 ug/ml)+Xiidra® 0.5 nM • 12. PBMC+LPS (5 ug/ml)+Xiidra® 0.05 nM • 13. PBMC+LPS (5 ug/ml)+Xiidra® 0.005 nM • 14. PBMC+LPS (5 ug/ml)+YY-101 500 nM • 15. PBMC+LPS (5 ug/ml)+YY-101 50 nM • 16. PBMC+LPS (5 ug/ml)+YY-101 5 nM • 17. PBMC+LPS (5 ug/ml)+YY-101 0.5 nM • 18. PBMC+LPS (5 ug/ml)+YY-101 0.05 nM • 19. PBMC+LPS (5 ug/ml)+YY-101 0.005 nM • 20. PBMC+LPS (5 ug/ml)+YDE-011 500 nM • 21. PBMC+LPS (5 ug/ml)+YDE-011 50 nM • 22. PBMC+LPS (5 ug/ml)+YDE-011 5 nM • 23. PBMC+LPS (5 ug/ml)+YDE-011 0.5 nM • 24. PBMC+LPS (5 ug/ml)+YDE-011 0.05 nM • 25. PBMC+LPS (5 ug/ml)+YDE-011 0.005 nM • 26. PBMC+LPS (5 ug/ml)+YDE-043 500 nM • 27. PBMC+LPS (5 ug/ml)+YDE-043 50 nM • 28. PBMC+LPS (5 ug/ml)+YDE-043 5 nM • 29. PBMC+LPS (5 ug/ml)+YDE-043 0.5 nM • 30. PBMC+LPS (5 ug/ml)+YDE-043 0.05 nM • 31. PBMC+LPS (5 ug/ml)+YDE-043 0.005 nM
Multiplex assay was used to measure 30 cytokines and chemokines. The 1:200 diluted cell supernatant and serial dilution of the standard were dispensed into a 96 well plate at 50 ul/well. Then, the pre-mixed cocktail of antibody-coated magnetic beads was dispensed at 50 ul/well and incubated at room temperature for 2 h in a horizontal orbital microplate shaker at 800±500 rpm. The beads were washed using a magnetic device to prevent loss. The biotin-antibody was dispensed in 50 ul of each well and incubated at room temperature for 1 h in a shaker at 800±500 rpm. After washing, streptavidin-PE was added at 50 ul/well and incubated at room temperature for 30 min in a shaker under the same conditions. Finally, after washing, wash buffer (100 ul/well) was added to the plate and incubated in a shaker for 2 min. The Luminex™ 200 setting were set according to the manufacturer's protocol. The data was calculated with a standard five-parameter logistic nonlinear regression analysis of the data (xPonent software 4.2, USA). Results were presented as concentration (ng/ml or pg/ml).

[1] = PBMC + LPS(5 ug/ml) + test article 0.005 nM
[2] = PBMC + LPS(5 ug/ml) + test article 0.005 nM, single replicates (1st, 2nd, 3rd)
[3] = PBMC + LPS(5 ug/ml) + test article 0.05 nM
[4] = PBMC + LPS(5 ug/ml) + test article 0.05 nM, single replicates (1st, 2nd, 3rd)
[5] = PBMC + LPS(5 ug/ml) + test article 0.5 nM
[6] = PBMC + LPS(5 ug/ml) + test article 0.5 nM, single replicates (1st, 2nd, 3rd)
[7] = PBMC + LPS(5 ug/ml) + test article 5 nM
[8] = PBMC + LPS(5 ug/ml) + test article 5 nM, single replicates (1st, 2nd, 3rd)
[9] = PBMC + LPS(5 ug/ml) + test article 50 nM
[10] = PBMC + LPS(5 ug/ml) + test article 50 nM, single replicates (1st, 2nd, 3rd)
[11] = PBMC + LPS(5 ug/ml) + test article 500 nM
[12] = PBMC + LPS(5 ug/ml) + test article 500 nM, single replicates (1st, 2nd, 3rd)

Row | Structure (SMILES) | IL-6 Concentration, Mean [1] | IL-6 Concentration [2] | IL-6 Concentration, Mean [3] | IL-6 Concentration [4] | IL-6 Concentration, Mean [5] | IL-6 Concentration [6] | IL-6 Concentration, Mean [7] | IL-6 Concentration [8] | IL-6 Concentration, Mean [9] | IL-6 Concentration [10] | IL-6 Concentration, Mean [11] | IL-6 Concentration [12] | LPS-induced IL-6 (in words) | further results
1 | CC(C)C[C@H](NC(=O)CNC(=O)[C@H](CC(C)C)NC(=O)[C@H](CCC(N)=O)NC(=O)CNC(=O)[C@@H]1C[C@@H](O)CN1)C(=O)N[C@@H](C)C(=O)NCC(=O)N1CCC[C@H]1C(=O)N[C@@H](CCCCN)C(=O)O [YDE-011] (H-[Hyp]GQLGLAGPK-OH) | 16114.6 pg/mL | 16843.8 pg/mL and 15250.9 pg/mL and 16249.2 pg/mL | 18589.3 pg/mL | 18843.4 pg/mL and 18343.3 pg/mL and 18581.4 pg/mL | 15456.8 pg/mL | 15322.2 pg/mL and 15654.9 pg/mL and 15393.5 pg/mL | 13541.9 pg/mL | 12094.3 pg/mL and 12947.9 pg/mL and 15583.6 pg/mL | 14621.7 pg/mL | 17248.3 pg/mL and 9892.0 pg/mL and 16724.9 pg/mL | 14568.3 pg/mL | 19367.5 pg/mL and 9383.5 pg/mL and 14953.9 pg/mL | significantly reduced | –
2 | CC(C)C[C@H](NC(=O)[C@H](CCC(N)=O)NC(=O)CNC(=O)[C@@H]1C[C@@H](O)CN1)C(=O)NCC(=O)O [YDE-043] (H-[Hyp]GQLG-OH; N-terminus and C-terminus assumed) | 17678.1 pg/mL | 15726.2 pg/mL and 16772.5 pg/mL and 20535.6 pg/mL | 14253.4 pg/mL | 13386.9 pg/mL and 14716.3 pg/mL and 14657.0 pg/mL | 14811.5 pg/mL | 15322.2 pg/mL and 15084.6 pg/mL and 14027.7 pg/mL | 16507.0 pg/mL | 16380.0 pg/mL and 17224.5 pg/mL and 15916.4 pg/mL | 16067.3 pg/mL | 16962.8 pg/mL and 16570.3 pg/mL and 14668.8 pg/mL | 14209.8 pg/mL | 13873.4 pg/ml (2×) and 14882.6 pg/ml | significantly reduced | –
3 | CC(C)C[C@H](NC(=O)CNC(=O)[C@H](CC(=O)O)NC(=O)[C@H](CCC(N)=O)NC(=O)CNC(=O)[C@@H]1C[C@@H](O)CN1)C(=O)N[C@@H](C)C(=O)NCC(=O)N1CCC[C@H]1C(=O)N[C@@H](CCCCN)C(=O)O [YY-101] (H-[Hyp]GQDGLAGPK-OH; N-terminus and C-terminus assumed) | 18061.6 pg/mL | 18760.0 pg/mL and 17676.7 pg/mL and 17748.1 pg/mL | 18375.1 pg/mL | 17605.3 pg/mL and 19105.4 pg/mL and 18414.7 pg/mL | 18018.0 pg/mL | 18069.4 pg/mL and 17248.3 pg/mL and 18736.2 pg/mL | 17232.8 pg/mL | 16606.0 pg/mL and 16439.5 pg/mL and 18652.8 pg/mL | 16962.9 pg/mL | 16320.6 pg/mL and 16689.2 pg/mL and 17879.0 pg/mL | 17165.1 pg/mL | 17129.3 pg/mL and 17748.1 pg/mL and 16617.9 pg/mL | significantly reduced | IL-6 Concentration, Mean (PBMC + test article 0.5 nM, no LPS): 16.2 pg/mL; IL-6 Concentration (PBMC + test article 0.5 nM, no LPS, single replicates (1st, 2nd)): 5.0 pg/mL and 27.3 pg/mL; IL-6 Concentration, Mean (PBMC + test article 5 nM, no LPS): 5.0 pg/mL; IL-6 Concentration (PBMC + test article 5 nM, no LPS, single replicates (1st, 2nd)): 5.0 pg/mL; IL-6 Concentration, Mean (PBMC + test article 0.05 uM, no LPS): 140.1 pg/mL; IL-6 Concentration (PBMC + test article 0.05 uM, no LPS, single replicates (1st, 2nd)): 140.1 pg/mL and <2.65 pg/mL; IL-6 Concentration, Mean (PBMC + test article 50 nM, no LPS): 5.0 pg/mL; IL-6 Concentration (PBMC + test article 50 nM, no LPS, single replicates (1st, 2nd)): 5.0 pg/mL and <2.65 pg/mL; IL-6 Concentration (PBMC + test article 500 nM, no LPS, single replicates (1st, 2nd)): <2.65 pg/mL
